Consider 15 compounds from patent US5854250A, “N-benzoylamino acid derivatives, pharmaceutical compositions containing them and process of preparing same” (Gyogyszerkutato Intezet KFT, priority 1997, dated 1998).

Data set [1] relates to brain homogenate. The data set is described as follows: iron(II) ion-dependent peroxidation of brain homogenate. Type of data set: biochemical, OFA rats. The note with it: rat brain homogenate in Krebs buffer; iron(II) initiated. As to the method:
(§1) The thiobarbituric acid-reactive products were determined by a modification of J. A. Buege [Meth. Enzymology 52, 302 (1978)] as follows. 0.55 ml of 2% thiobarbituric acid was added to the solution and the samples were boiled for 20 minutes. After cooling down, the samples were diluted with distilled water, then chloroform was added. After centrifuging the tubes at 400×g for 7 minutes, the quantity of the thiobarbituric acid-reactive products was determined in the supernatant by spectrophotometry at 535 nm. The effect of the compound to be tested was characterized by its IC50 value (i.e. the concentration resulting in an 50% inhibition). α-Tocopherol was used as reference compound.
B) The effect of compounds of general formula (I) on the iron(II) ion-dependent peroxidation of brain homogenate
The measurement was carried out by using the method of J. M. Braughler [J. Biol. Chem. 262, 10438 (1987)].
In these experiments OFA rats with a body-weight of 150-200 g were decapitated and brain homogenates were prepared in Krebs buffer solution, then the Method A) was followed.

Data set [2] deals with brain microsomes. The data set is described as follows: NADPH-dependent peroxidation of brain microsomes. Format: biochemical, OFA rats. The following applies: rat brain microsomes, pH 6.8, 15 minutes, read-out: IC50 on brain microsome. Here is the method: C) The effect of compounds of general formula (I) on the NADPH-dependent peroxidation of brain microsomes
This study was carried out by using the method of T. J. Player and A. A. Morton [J. Neurochem. 37, 422 (1981)].
OFA rats of 3 months age were decapitated and their whole brain was homogenized in ice-cold 0.25M saccharose solution. After centrifuging the homogenate at 15000×g for 10 minutes, the supernatant was decanted and the residue was further centrifuged at 78000×g for 60 minutes. The preparation having a concentration of 10-20 mg of protein/ml was divided to aliquots.
2) Measurement of the microsomal lipid peroxidatiorn
The measurement was carried out at […] in a reaction mixture with the following composition; 0.05M Tris maleate (pH 6.8) buffer, 1.0 mM KH2 SO4, 1.0 mM ADP, 0.2 mM FeCl3 and 0.4 mM NAOPH. NAOPH was not added to the reaction mixture used for determination of the baseline activity. The reaction was initiated […] by adding 0.5 mg of membrane protein and stopped after incubation for 15 minutes. Subsequently, the samples were centrifuged at 950×g for 20 minutes. The thiobarbituric acid-reactive products were determined in 1 ml of supernatant each by using the method of Z. Dunied [Biochem. Pharmacol. 32, 2283 (1983)].

Data set [3] can be described thus: acute oral toxicity in rats. The following applies: rat, in vivo. The text has this:
The toxicity of the compounds according to the invention was studied in rats.

Data set [4] has as its system small intestine section. Kind of data set: ischaemic intestine injury in rats. Type of data set: in vivo, Male CFY rats. The following applies: Rattus norvegicus; 25 mg/kg oral, 2 hours before the operation; read-out: Inhibition of ischaemia (%). Here is the method:
A) Effect of compounds of the general formula (I) on the ischaemic intestine injury in rats
The method of D. A. Parks et al. [Surgery 92, 869 (1985)] was employed in these experiments.
Male CFY rats with an average body-weight of 250 g were starved for 24 hours before the surgical intervention but water was allowed ad libitum. The compound to be tested was orally administered in a 25 mg/kg dose by 2 hours before the operation.
The abdominal wall was opened along the median line under ether anaesthesia. The appropriate small intestine section was made ischaemic by ligating both small branches belonging to the pancreatico-duodenal artery. The shame-operated control animals were subjected only to the surgical intervention but their blood vessels were not ligated. The wound was closed and after 2 hours the abdominal cavity of the animals was again opened under ether anaesthesia. The thickened intestinal section was removed, its length and weight were determined and the significance was calculated by Duncan's test [D. B. Duncan: Biometrics 11, 1 (1955)] (with the weights corrected for a length of 20 mm) on the one hand, between the sham-operated and ischaemized vehicle-control animals; and on the other hand, between the ischaemized control animals and ischaemized animals treated with the compound to be tested. The edema-induced weight increase in the intestinal section was expressed as percentage.

In data set [5] the test system is arachidonic acid. The data set is described as follows: iron(II)-dependent peroxidation of arachidonic acid. Type of data set: biochemical. The note with it: 37° C., in methanol; iron(II) initiated; thiobarbituric acid-reactive products, 535 nm; read-out: IC50 on arachidonic acid substrate. As to the method: A) The effect of compounds of general formula (I) on the iron(II)-dependentperoxidation of arachidonic acid
The peroxidation of arachidonic acid was measured by using the method of J. M. Braughler [J. Biol. Chem. 262, 10438 (1986)] at 37° C. in methanol. The compound to be tested was investigated at various concentrations. The peroxidation was initiated by adding 10^-4 mol of iron(II) (ferrous) ion (to result in a final volume of 0.5 ml).
as §1

Data set [6] has as its system reperfusion-induced arrhythmia. The data set is described as follows: reperfusion-induced arrhythmia in rats. Type of data set: in vivo, male SPRD rats. The note with it: for Average duration of VT/VF: one hour before, S ± SE/min. Here is the method:
B) Investigations on the model of reperfusion-induced arrhythmia in rats
In these experiments, the reperfusion-induced arrhythmia was developed in male SPRD rats weighing 400 g in average by using the method Lamontagne et al. [Fundam. Clin. Pharmacol. 3, 671 (1989)].
The chest of artificially respirated animals was opened under pentobarbital anaesthesia and a thread was implanted under the left coronary. After an equilibration period of 15 minutes, in the case of an arterial blood pressure of at least 60 Hgmm, a myocardial ischaemia was induced by ligating the coronary for 5 minutes. This was followed by a reperfusion lasting for 10 minutes. The duration of arrhythmia, ventricular tachycardia (VT) and ventricular fibrillation (VF), respectively, developed within 3 minutes after reperfusion were registered in a lead-II ECG.
The average durations of VT and VF, respectively related to 1 minute were determined and the number of deaths induced by arrhythmia was also registered.
The compound to be tested was orally administered one hour before the experiment.
The statistical data were calculated by using Duncan's test (duration of VT and VF, respectively) or the chi^2 test (number of deaths) [S. Bolton in: "Pharmaceutical Statistics", pages 169-173 (1990), Marcel Dekkar] following the variance analysis in relation to the vehicle control.

The conditions of data set [7]: cited from earlier work.
Data set [8] concerns lipid peroxidation. The following applies: J. M. Braughler et al.; cited from earlier work.
Data set [9] has as its system dopamine level of corpus striatum. Kind of data set: neurotoxicity-inhibiting effect in mice (MPTP-induced dopamine depletion). Type of data set: in vivo, Male C-57 mice. The following applies: for Dopamine level: then 50 mg/kg. As to the method:
C) Study on the neurotoxicity-inhibiting effect in mice This study was carried out by using the method of R. E. Heikkila at al. [Science 224, 1451 (1984)] or by some modification of this method being very suitable to investigate compounds which are potentially active against Parkinson's disease. […] MPTP). […] One hour after the last administration, 40 mg/kg of MPTP and then an additional amount of 50 mg/kg of the compound to be tested were intraperitoneally administered. The animals were killed after 4 days, their brain was removed and the corpus striatum was separated. The dopamine level of corpus striatum was determined by high performance liquid chromatography (HPLC).

The test system of data set [10] is heart-damaging effect of vasopressin. The note with it: G. Razzaboni et al.; cited from earlier work.
Setting [11] is: with MPTP treatment (+), 40 mg/kg, compound 100 mg/kg i.p. once daily for 3 days, a p < 0.01, b p < 0.05 vs MPTP control.
Setting [12] is: without MPTP treatment (-), 100 mg/kg i.p. once daily for 3 days.

A value given as a limit tells only on which side of the number the result lay.

For `O=C(O)CCCCNC(=O)c1cc(O)ccc1O` [Example 37], the IC50 in [1] was determined as 100 µM; in data set [2], 100 µM; in [5] it was 31 µM. Further, in [3], the LD50 was above 1000 mg/kg. In addition, the inhibition in vivo at 25 mg/kg in [4] is 73%.
Turning to `O=C(NCCCCCC(=O)N1CCN(CCCc2ccccc2)CC1)c1cc(O)ccc1O` [Example 34], the IC50 in [1] turned out to be 40 µM; in [2], 8.6 µM; in [5], 100 µM.
With `Cc1c(C)c2c(c(C)c1O)CCC(C)(CCCC(C)CCCC(C)CCCC(C)C)O2` (stereo not drawn) [α-Tocopherol, reference compound], the figures for the IC50 in data set [1], in [2] and in data set [5] were 7 µM, above 100 µM and 1.5 µM, respectively. Besides, the “Average duration of VT/VF” value is 33.1 ± 7.1 S/min in data set [6] (100 mg/kg p.o., **p < 0.01) and 27.2 ± 7.1 S/min in data set [6] (250 mg/kg p.o., **p < 0.01). The “No. of deaths (lethal VT/VF)” value in data set [6] (100 mg/kg p.o., *p < 0.05) is on record as 4/8; in data set [6] (250 mg/kg p.o., *p < 0.05), 1/8.
For `C[C@@H]1C[C@H]2[C@@H]3CCC4=CC(=O)C=C[C@]4(C)C3=CC[C@]2(C)[C@H]1C(=O)CN1CCN(c2cc(N3CCCC3)nc(N3CCCC3)n2)CC1` [Example U74006F], the in vivo activity entry in data set [7] is “proven”. For the same compound, the “inhibition of lipid peroxidation” value in data set [8] is on record as “strongly inhibited”.
Consider `O=C(NCCCCCC(=O)N1CCCC1=O)c1cc(O)ccc1O` [Example 30], for which the inhibition in vivo at 25 mg/kg in [4] worked out at 70%.
Still for that read-out and setting: under `COC(=O)CCCCCNC(=O)c1cc(O)ccc1O` [Example 41, Methyl 6-{[N-(2,5-dihydroxybenzoyl)amino]hexanoate}] stands 75%.
In the case of `O=C(O)CCCCCNC(=O)c1cc(O)ccc1O` [Example 25], the half-maximal inhibitory concentration (IC50) in [1] came to 100 µM; in data set [2], 100 µM; in [5] it was 15 µM. Further, the “No. of deaths (lethal VT/VF)” value in data set [6] (50 mg/kg p.o.) was 4/8; in [6] (100 mg/kg p.o., *p < 0.05) it was 1/10. Further, the “Average duration of VT/VF” value in [6] (50 mg/kg p.o.) was found to be 37.3 ± 5.7 S/min; in [6] (100 mg/kg p.o., **p < 0.01), 28.0 ± 5.1 S/min. In addition, the median lethal dose (LD50) in [3] was above 1000 mg/kg. Besides, the inhibition in vivo at 25 mg/kg in data set [4] amounted to 61%.
With `CCOC(=O)CCCCCCCCCCNC(=O)c1cc(O)ccc1O` [Example 31, ethyl 11-[N-(2,5-dihydroxybenzoyl)amino]undecanoate], the figures for the IC50 in data set [1], in data set [2] and in [5] were 16 µM, 6.6 µM and 100 µM, respectively.
Regarding `O=C(O)CCCCCCCCCCCNC(=O)c1cc(O)ccc1O` [Example 24], the concentration for half-maximal inhibition (IC50) in data set [1] stood at 4.8 µM; in data set [2], 37 µM; in [5], 40 µM. Further, the “Dopamine level, % of control” value came out at 24% in data set [9] (with MPTP treatment (+)) and 102% in data set [9] (without MPTP treatment (-)). The Dopamine level in data set [9] (setting [11]) is recorded as 4,85 ± 1,7 μg/g tissue; in [9] (setting [12]), 20,44 ± 0,6 μg/g tissue. The LD50 in [3] was above 1000 mg/kg. The inhibition in vivo at 25 mg/kg in data set [4] was 63%.
As for `CCOC(=O)CCCCCCCCCCCNC(=O)c1cc(O)ccc1O` [Example 32], the IC50 was 12 µM in data set [1], 7.9 µM in [2] and 100 µM in data set [5].
`CCCCCCCCNC(=O)CCCCCNC(=O)c1cc(O)ccc1O` [Example 29]: the IC50 in data set [1] stood at 9 µM; in [2], 4.5 µM; in data set [5] it was 100 µM. In addition, the LD50 in data set [3] is above 1000 mg/kg. Moreover, the inhibition in vivo at 25 mg/kg in [4] was found to be 52%.
Turning to `O=C(O)CCCNC(=O)c1cc(O)ccc1O` [Example 36, 4-[N-(2,5-dihydroxybenzoyl)amino]butyric acid], the IC50 was determined as 100 µM in [1], 100 µM in data set [2] and 3.4 µM in data set [5]. In addition, the “No. of deaths (lethal VT/VF)” value in [6] (50 mg/kg p.o.) is 4/8; in data set [6] (100 mg/kg p.o., *p < 0.05), 0/10. The “Average duration of VT/VF” value in [6] (50 mg/kg p.o.) came to 33.0 ± 9.9 S/min; in [6] (100 mg/kg p.o., **p < 0.01), 20.6 ± 6.3 S/min. Besides, the “Dopamine level, % of control” value is 33% in [9] (with MPTP treatment (+)) and 103% in data set [9] (without MPTP treatment (-)). Besides, the Dopamine level is listed as 6,68 ± 1,0 μg/g tissue in data set [9] (setting [11]) and 20,67 ± 0,5 μg/g tissue in data set [9] (setting [12]). The compound further came in with an LD50 in data set [3] above 1000 mg/kg. In [4], the inhibition in vivo at 25 mg/kg stood at 76%.
Take `COC(=O)CCCNC(=O)c1cc(O)ccc1O` [Example 40, methyl 4-[N-(2,5-dihydroxybenzoyl)amino]butanoate]: the inhibition in vivo at 25 mg/kg in data set [4] is 72%.
As for `COc1cc(C(=O)NCCCCCC(=O)O)ccc1O` [6-(4-hydroxy-3-methoxybenzoyl)aminohexanoic acid], the “activity against the heart-damaging effect of vasopressin” value in data set [10] is “inactive”.
Turning to `O=C(NCCCCCC(=O)N1CCN(c2cc(N3CCCC3)nc(N3CCCC3)n2)CC1)c1cc(O)ccc1O` [Example 35], the IC50 in data set [1] stood at 3.3 µM; in [2], 5.3 µM; in data set [5], 27 µM. The same compound returned a 50% lethal dose (LD50) in data set [3] above 1000 mg/kg. Moreover, the inhibition in vivo at 25 mg/kg in data set [4] was found to be 63%.
